Source: the NIST ThermoML archive (doi:10.1021/je060271a)
± gives the expanded uncertainty stated by the source.

Settings: 283.15 K, Liquid, Vibrating tube method

CCCCC(=O)OCC(COC(=O)CCCC)(COC(=O)CCCC)COC(=O)CCCC [pentaerythritol tetrapentanoate]
Settings | mass density [kg/m3]
17085 kPa | 1036.8 ± 1.2
17119 kPa | 1037 ± 1.2
17147 kPa | 1036.9 ± 1.2
17175 kPa | 1036.9 ± 1.2
17208 kPa | 1036.9 ± 1.2
17236 kPa | 1036.9 ± 1.2
17270 kPa | 1036.9 ± 1.2
17299 kPa | 1037 ± 1.2
17327 kPa | 1037 ± 1.2
17355 kPa | 1037.1 ± 1.2
17390 kPa | 1037 ± 1.2
17419 kPa | 1037.1 ± 1.2
17449 kPa | 1037.2 ± 1.2
17478 kPa | 1037 ± 1.2
17514 kPa | 1037 ± 1.2
17542 kPa | 1037.2 ± 1.2
17572 kPa | 1037.1 ± 1.2
17607 kPa | 1037.1 ± 1.2
17637 kPa | 1037.4 ± 1.2
17666 kPa | 1037.2 ± 1.2
17702 kPa | 1037.3 ± 1.2
17732 kPa | 1037.2 ± 1.2
17762 kPa | 1037.3 ± 1.2
17798 kPa | 1037.3 ± 1.2
17829 kPa | 1037.1 ± 1.2
17860 kPa | 1037.4 ± 1.2
17890 kPa | 1037.4 ± 1.2
17927 kPa | 1037.2 ± 1.2
17958 kPa | 1037.4 ± 1.2
17995 kPa | 1037.4 ± 1.2
18026 kPa | 1037.4 ± 1.2
18058 kPa | 1037.4 ± 1.2
18097 kPa | 1037.4 ± 1.2
18130 kPa | 1037.4 ± 1.2
18164 kPa | 1037.4 ± 1.2
18197 kPa | 1037.5 ± 1.2
18237 kPa | 1037.5 ± 1.2
18262 kPa | 1037.5 ± 1.2
18283 kPa | 1037.6 ± 1.2
18309 kPa | 1037.6 ± 1.2
18330 kPa | 1037.6 ± 1.2
18356 kPa | 1037.5 ± 1.2
18377 kPa | 1037.6 ± 1.2
18399 kPa | 1037.6 ± 1.2
18421 kPa | 1037.6 ± 1.2
18446 kPa | 1037.8 ± 1.2
18468 kPa | 1037.6 ± 1.2
18490 kPa | 1037.7 ± 1.2
18517 kPa | 1037.7 ± 1.2
18539 kPa | 1037.6 ± 1.2
18561 kPa | 1037.7 ± 1.2
18588 kPa | 1037.6 ± 1.2
18610 kPa | 1037.8 ± 1.2
18631 kPa | 1037.7 ± 1.2
18657 kPa | 1037.6 ± 1.2
18680 kPa | 1037.8 ± 1.2
18702 kPa | 1037.9 ± 1.2
18728 kPa | 1037.6 ± 1.2
18750 kPa | 1037.7 ± 1.2
18778 kPa | 1037.8 ± 1.2
18800 kPa | 1037.8 ± 1.2
18823 kPa | 1037.9 ± 1.2
18845 kPa | 1037.8 ± 1.3
18874 kPa | 1037.8 ± 1.2
18896 kPa | 1037.8 ± 1.2
18919 kPa | 1037.9 ± 1.2
18947 kPa | 1037.9 ± 1.2
18970 kPa | 1037.8 ± 1.2
18993 kPa | 1037.9 ± 1.2
19021 kPa | 1038 ± 1.2
19044 kPa | 1037.9 ± 1.3
19067 kPa | 1037.8 ± 1.2
19094 kPa | 1037.9 ± 1.2
19118 kPa | 1038 ± 1.2
19142 kPa | 1038.1 ± 1.2
19166 kPa | 1038 ± 1.3
19191 kPa | 1038 ± 1.3
19219 kPa | 1038 ± 1.2
19243 kPa | 1038 ± 1.4
19266 kPa | 1038 ± 1.3
19295 kPa | 1038.2 ± 1.3
19319 kPa | 1038 ± 1.3
19343 kPa | 1038 ± 1.2
19372 kPa | 1038.2 ± 1.3
19397 kPa | 1038.1 ± 1.3
19420 kPa | 1038.2 ± 1.3
19450 kPa | 1038.1 ± 1.3
19475 kPa | 1038.1 ± 1.3
19501 kPa | 1038.1 ± 1.3
19525 kPa | 1038.2 ± 1.3
19550 kPa | 1038.2 ± 1.3
19579 kPa | 1038.2 ± 1.3
19603 kPa | 1038.3 ± 1.3
19633 kPa | 1038.3 ± 1.3
19658 kPa | 1038.2 ± 1.3
19682 kPa | 1038.1 ± 1.3
19707 kPa | 1038.3 ± 1.3
19738 kPa | 1038.4 ± 1.3
19763 kPa | 1038.4 ± 1.3
19788 kPa | 1038.3 ± 1.3
19818 kPa | 1038.4 ± 1.3
19844 kPa | 1038.3 ± 1.3
19874 kPa | 1038.4 ± 1.3
19900 kPa | 1038.3 ± 1.3
19925 kPa | 1038.5 ± 1.3
19951 kPa | 1038.5 ± 1.3
19982 kPa | 1038.5 ± 1.3
20007 kPa | 1038.5 ± 1.3
20033 kPa | 1038.5 ± 1.3
20064 kPa | 1038.4 ± 1.3
20090 kPa | 1038.5 ± 1.3
20121 kPa | 1038.5 ± 1.3
20147 kPa | 1038.5 ± 1.3
20174 kPa | 1038.5 ± 1.3
20200 kPa | 1038.6 ± 1.3
20232 kPa | 1038.5 ± 1.3
20259 kPa | 1038.7 ± 1.3
20286 kPa | 1038.5 ± 1.3
20318 kPa | 1038.6 ± 1.3
20344 kPa | 1038.6 ± 1.3
20376 kPa | 1038.6 ± 1.3
20403 kPa | 1038.6 ± 1.3
20430 kPa | 1038.8 ± 1.3
20462 kPa | 1038.6 ± 1.3
20490 kPa | 1038.7 ± 1.3
20517 kPa | 1038.7 ± 1.3
20550 kPa | 1038.8 ± 1.3
20578 kPa | 1038.8 ± 1.3
20607 kPa | 1038.8 ± 1.3
20634 kPa | 1038.9 ± 1.3
20667 kPa | 1038.8 ± 1.3
20695 kPa | 1038.8 ± 1.3
20723 kPa | 1038.8 ± 1.3
20756 kPa | 1038.9 ± 1.3
20784 kPa | 1038.9 ± 1.3
20812 kPa | 1038.9 ± 1.3
20846 kPa | 1038.9 ± 1.3
20875 kPa | 1039 ± 1.3
20904 kPa | 1038.9 ± 1.3
20938 kPa | 1038.9 ± 1.3
20966 kPa | 1038.9 ± 1.3
20995 kPa | 1039 ± 1.3
21029 kPa | 1039 ± 1.3
21058 kPa | 1039.1 ± 1.3
21086 kPa | 1039.2 ± 1.3
21116 kPa | 1039 ± 1.3
21151 kPa | 1039 ± 1.3
21180 kPa | 1039.1 ± 1.3
21215 kPa | 1039.1 ± 1.3
21244 kPa | 1039.2 ± 1.3
21274 kPa | 1039.1 ± 1.3
21303 kPa | 1039.1 ± 1.3
21340 kPa | 1039.1 ± 1.3
21369 kPa | 1039.2 ± 1.3
21399 kPa | 1039.1 ± 1.3
21435 kPa | 1039.2 ± 1.3
21464 kPa | 1039.2 ± 1.3
21495 kPa | 1039.3 ± 1.3
21531 kPa | 1039.4 ± 1.3
21561 kPa | 1039.3 ± 1.3
